From patent publication US20240050526A1, “CATH2 DERIVATIVES FOR STIMULATING INNATE IMMUNE MEMORY” (priority 2020, published 2024)
Square brackets hold non-standard residues; d marks the D form. Ends that are not written are not given here.

Legend:
dTHP-1 cells = experiment: RNA sequencing of DCATH-2 trained dTHP-1 cells; format: cell-based, human
Experimental: dTHP-1 cells (1×10^6/well) were primed for 24 h with DCATH-2 in 6 well plates containing 1 ml medium, using culture medium as control. After priming, cells were washed 3 times and left to rest for 3 days in culture medium. Cells were stimulated for 6 h with 50 ng/ml E. coli O111:B4 LPS or fresh medium. Supernatants were stored for cytokine analysis. Cells were harvested by rinsing once with ice-cold DPBS and lysing cells in 100 μl RLT buffer (Qiagen) containing 1% 2-mercaptoethanol. After scraping, per condition the contents of two wells were transferred into vials, flash frozen in liquid nitrogen and stored at −80° C. for analysis. Total RNA was extracted in RLT buffer (RNeasy kit, Qiagen) supplemented with 2-mercaptoethanol and purified using a Qiagen QiaSymphony SP system. RNA libraries were prepared using the Truseq stranded total RNA (ribo-zero) library prep kit (Illumina) according the manufacturer's recommendations. RNA-sequencing was done with a NextSeq 500 system 1×75 bp high-output kit. Single-end RNASeq reads were processed using the UMCU RNASeq pipeline (v2.3.0) with default settings. Read quality was assessed with FastQC (0.11.4) followed by splice-aware alignment against the human reference genome (GRCh37) with STAR (2.4.2a). RNA expression quantification was performed with htseq-count (0.6.0) in reverse-stranded mode. Differential gene expression analysis was carried out with the DESeq2 package in DEBrowser (https://debrowser.umassmed.edu/). In each comparsion, genes were selected with an absolute fold-change >1.5 and alpha P<0.05. Pathway enrichment analysis was performed in g:Profiler (https://biit.cs.ut.ee/gprofiler/) using separate FDR ranked differentially expressed gene lists for up and down regulated genes with a Benjamini-Hochberg FDR correction for multiple testing and a FDR<0.05 threshold. Enriched pathways of GO Biologic Processes were visualized in Cytoscape (http://www.cytoscape.org/) using EnrichmentMap (http://www.baderlab.org/Software/EnrichmentMap) and a FDR cutoff of 0.01. Similarity statistic threshold was set at Jaccard>0.25 and filtered for gene set sizes between 5 and 500 genes.

[1] = system: Candida albicans ATCC10231; experiment: Candidacidal activity of DCATH-2 primed dTHP-1 cells; format: cell-based; details: 24 h DCATH-2 training; colonies after 48 h
Experimental: dTHP-1 cells were seeded in 6 well plates and primed with DCATH-2 or medium as described. Candida albicans ATCC10231 was grown in yeast malt broth (Oxoid) at 30° C., diluted in DPBS to 1×10^4 CFU/ml and added to each well (MOI of 0.03). After 5 h incubation at 30° C., supernatants were transferred and kept. The remaining cells were supplemented with 0.5 ml of sterile water, mixed vigorously and combined with their corresponding well supernatants. Serial dilutions prepared in yeast malt broth were plated onto yeast malt agar. Colonies were counted after 48 h at 30° C.

[2] = DCATH-2 training, during LPS stimulation
[3] = RNAseq experiment, 24 h priming, 3 days rest, 6 h E. coli LPS stimulation
[4] = trained LPS-stimulated cells vs LPS-stimulated control cells
[5] = trained and rested cells vs unstimulated control cells

rfgrflrkirrfrpkvtitiqgsarf-NH2 ([dR][dF]G[dR][dF][dL][dR][dK][dI][dR][dR][dF][dR][dP][dK][dV][dT][dI][dT][dI][dQ]G[dS][dA][dR][dF]-NH2; N-terminus assumed; SMILES CC[C@@H](C)[C@@H](NC(=O)[C@@H](CCCCN)NC(=O)[C@@H](CCCNC(=N)N)NC(=O)[C@@H](CC(C)C)NC(=O)[C@@H](Cc1ccccc1)NC(=O)[C@@H](CCCNC(=N)N)NC(=O)CNC(=O)[C@@H](Cc1ccccc1)NC(=O)[C@H](N)CCCNC(=N)N)C(=O)N[C@H](CCCNC(=N)N)C(=O)N[C@H](CCCNC(=N)N)C(=O)N[C@H](Cc1ccccc1)C(=O)N[C@H](CCCNC(=N)N)C(=O)N1CCC[C@@H]1C(=O)N[C@H](CCCCN)C(=O)N[C@@H](C(=O)N[C@@H](C(=O)N[C@@H](C(=O)N[C@@H](C(=O)N[C@@H](C(=O)N[C@H](CCC(N)=O)C(=O)NCC(=O)N[C@H](CO)C(=O)N[C@H](C)C(=O)N[C@H](CCCNC(=N)N)C(=O)N[C@H](Cc1ccccc1)C(N)=O)[C@H](C)CC)[C@H](C)O)[C@H](C)CC)[C@H](C)O)C(C)C) [DCATH-2, full D-amino acid analog of CATH-2]
Log 2 fold change, gene AHNAK2 (dTHP-1 cells; [2]): 1.12
Log 2 fold change, gene CCL18 (dTHP-1 cells; [2]): 2.81
Log 2 fold change, gene CCRL2 (dTHP-1 cells; [2]): 1.04
Log 2 fold change, gene CD22 (dTHP-1 cells; [2]): 1.18
Log 2 fold change, gene CSF2 (dTHP-1 cells; [2]): 1.81
Log 2 fold change, gene CXCL3 (dTHP-1 cells; [2]): 1.18
Log 2 fold change, gene FAM213B (dTHP-1 cells; [2]): 1.02
Log 2 fold change, gene FOXF1 (dTHP-1 cells; [2]): 1.21
Log 2 fold change, gene HSPBAP1 (dTHP-1 cells; [2]): 1.06
Log 2 fold change, gene IL1A (dTHP-1 cells; [2]): 1.15
Log 2 fold change, gene IL6 (dTHP-1 cells; [2]): 2.17
Log 2 fold change, gene KLF2 (dTHP-1 cells; [2]): 2.54
Log 2 fold change, gene LIF (dTHP-1 cells; [2]): 2.73
Log 2 fold change, gene MFSD2A (dTHP-1 cells; [2]): 1.04
Log 2 fold change, gene MYLK (dTHP-1 cells; [2]): 1.17
Log 2 fold change, gene PTGS2 (dTHP-1 cells; [2]): 1.29
Log 2 fold change, gene SEPT3 (dTHP-1 cells; [2]): 1.06
Log 2 fold change, gene TIE1 (dTHP-1 cells; [2]): 1.46
Log 2 fold change, gene TNFSF15 (dTHP-1 cells; [2]): 1.19
Log 2 fold change, gene TRIM47 (dTHP-1 cells; [2]): 2.45
Log 2 fold change, gene TRPM8 (dTHP-1 cells; [2]): 1.36
Log 2 fold change, gene ZNF358 (dTHP-1 cells; [2]): 1.04
amplification of IL-6 production (dTHP-1 cells; [3]): 3.3 fold
amplification of TNFα production (dTHP-1 cells; [3]): 2.5 fold
downregulated DEGs (dTHP-1 cells; [4]): 54
upregulated DEGs (dTHP-1 cells; [4]): 71
downregulated DEGs (dTHP-1 cells; [5]): 126
upregulated DEGs (dTHP-1 cells; [5]): 156
inhibition of outgrowth of Candida albicans vs non-primed dTHP-1 cells [1]: 68±10%
